The values that follow come from PMC4941640 (Cancer cell, 2015).

pEC50, pIC50: −log10 of the molar value. Read-outs that look alike come from different tables or passages of the source. Where only a bound is given, the exact number is not on record here.

Series [1] relates to A549 cells. As to the kind of experiment: p62 modulation by immunofluorescence. The class given is cell-based.
For series [2], the target named is T1, DNA-PK (Homo sapiens, UniProt P78527). As to conditions: DNA-PK vs p97, dose titration.
The test system of a further series is mTOR. Conditions: mTOR vs p97, dose titration.
A further series deals with PIK3C3. Conditions: PIK3C3 vs p97, dose titration.
Series [3] has as its target T1, DNA-PK. Conditions: A549 cells, 6 hr, nuclear phospho-H2AX.
The test system of another series is HCT116 xenograft tumors. As to conditions: 100 mg/kg single oral dose, 6 hr, nude mice.
For series [4] the following is noted: all dosing schedules tested, tumor-bearing mice, po.
The subject of another series is HCT 116 T688A xenografts. Conditions: 90 mg/kg.
The next series has as its system AMO-1 xenograft. As to conditions: after 2 cycles of treatment, qd4/3off.
The next series has as its system HCT116 or A549 tumors. As to conditions: single administration, nude mice bearing HCT116 or A549 tumors.
Series [5] relates to HEK293T cells stably expressing TCRα-GFP. The experiment in a line: cells. As to conditions: Homo sapiens, HEK-293T, read-out: EC50, accumulation of TCRα-GFP.
The subject of series [6] is HEK293 cells expressing GFPu. As to the kind of experiment: cells. Conditions: Homo sapiens, HEK293, read-out: EC50, accumulation of GFPu.
Series [7] concerns A549 cells. As to the kind of experiment: cells. Conditions: Homo sapiens, A549, read-out: EC50, induction of CHOP protein.
Another series deals with AMO-1. The experiment in a line: cells. Conditions: Homo sapiens, AMO1, read-out: IC50 in vitro, AMO-1.
A further series relates to 350 cancer cell lines. As to the kind of experiment: cells. As to conditions: 72 h.

On to `CC(C)n1nc(-c2ccc3oc(N)nc3c2)c2c(N)ncnc21` [INK-128], for which the “effect on p62 levels” value in the series on A549 cells [1] is given as “decrease in p62 levels”.
Regarding `Cc1cc(OCc2nnc(SC3CCCC3)n2-c2cccnc2)ccc1-c1ccc(S(C)(=O)=O)cc1` [NMS-873], the “effect on p62 levels” value with A549 cells [1] is reported as “decreases in p62 levels”.
The same measure, in the same setting: then `CC(C)C[C@H](NC(=O)[C@H](Cc1ccccc1)NC(=O)c1cnccn1)B(O)O` [bortezomib], with “decreases in p62 levels”.
Broadly, the pEC50 is −log10 of the EC50, conventionally taken in molar units. Broadly, the pIC50 is −log10 of the IC50, conventionally taken in molar units. Turning to `Cc1cc2c(C(N)=O)cccc2n1-c1nc2c(c(NCc3ccccc3)n1)COCC2` [CB-5083, 1-[4-(benzylamino)-5H,7H,8H-pyrano[4,3-d]pyrimidin-2-yl]-2-methyl-1H-indole-4-carboxamide], the “effect on p62 levels” value in the series on A549 cells [1] is “rapidly cleared from cells”. The entries for the “fold less affinity compared to p97” value at DNA-PK [2], with mTOR and with PIK3C3 were 29.6 fold, 128 fold and 158 fold, respectively. Further, on DNA-PK [3], the “inhibition of DNA-PK in cell-based assay” value is “not to inhibit DNA-PK at concentrations that caused cell death”. For the same compound, the “decrease of p62 protein levels in tumor” value in the series on HCT116 xenograft tumors is 60%. The same compound had a weight loss in [4] of under 10%. Also, the “tumor growth inhibition (TGI)” value in the series on HCT116 xenograft (50 mg/kg po, qd) came out at 62%; in the series with HCT116 xenograft (100 mg/kg po, qd4/3off) it was 78%. Further, in the series on HCT 116 T688A xenografts, the “tumor growth of T688A mutant model” value is listed as “not inhibited”. In addition, the “complete regressions of tumors (animals)” value in the series with AMO-1 xenograft is reported as 6/12. The “accumulation of poly-ubiquitin or CHOP in tumor tissue” value with HCT116 or A549 tumors is “strong and sustained induction of polyubiquitin”. For the same compound, the negative-log EC50 (pEC50) in series [5] was 6.14; in series [6] it was 5.98; with A549 cells [7] it was 5.92; in the series on 350 cancer cell lines (read-out: EC50 of cell viability, lower end of range in panel) it was at most 7.09; in the series with 350 cancer cell lines (read-out: EC50 of cell viability, upper end of range in panel), at least 5.68. Besides, the pIC50 in the series with AMO-1 is 7.09.
On to `CO/C1=C\C(C)=C\[C@@H](C)[C@@H](O)[C@@H](C)C/C(C)=C/C=C/[C@H](OC)[C@@H]([C@@H](C)[C@@H](O)[C@H](C)[C@@]2(O)C[C@@H](O)[C@H](C)[C@@H](C(C)C)O2)OC1=O` [bafilomycin A1], for which, in the series on A549 cells [1], the “effect on p62 levels” value is recorded as “accumulation of p62 in peri-nuclear foci”.
